Assay results published in patent US20100137313A1 (ASTRAZENECA AB, priority 2008, published 2010).

Target: S. pneumoniae Topoisomerase IV ATPase (ParE) (Streptococcus pneumoniae serotype 4, UniProt Q59961)
Assay: S. pneumoniae Topoisomerase IV ATPase inhibition
Assay type: biochemical
Conditions: values marked * are an average of two or more data points, read-out: % Inh (13 μM) of S. pneumoniae Topoisomerase IV ATPase
Procedure, shortened: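 S. pneumoniae ParE (1.25 nM) ATPase with 160 μM ATP and 5 μg/ml sheared DNA in pH 8.0 Tris, Mg2+, DTT, Brij-35; phosphate detected by malachite green/molybdate at 650 nm. Normalised to 2% DMSO (0%) and 20 μM EDTA (100%); IC50 from 10 concentrations.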

Sequence of S. pneumoniae Topoisomerase IV ATPase (ParE) (Q59961 whole entry): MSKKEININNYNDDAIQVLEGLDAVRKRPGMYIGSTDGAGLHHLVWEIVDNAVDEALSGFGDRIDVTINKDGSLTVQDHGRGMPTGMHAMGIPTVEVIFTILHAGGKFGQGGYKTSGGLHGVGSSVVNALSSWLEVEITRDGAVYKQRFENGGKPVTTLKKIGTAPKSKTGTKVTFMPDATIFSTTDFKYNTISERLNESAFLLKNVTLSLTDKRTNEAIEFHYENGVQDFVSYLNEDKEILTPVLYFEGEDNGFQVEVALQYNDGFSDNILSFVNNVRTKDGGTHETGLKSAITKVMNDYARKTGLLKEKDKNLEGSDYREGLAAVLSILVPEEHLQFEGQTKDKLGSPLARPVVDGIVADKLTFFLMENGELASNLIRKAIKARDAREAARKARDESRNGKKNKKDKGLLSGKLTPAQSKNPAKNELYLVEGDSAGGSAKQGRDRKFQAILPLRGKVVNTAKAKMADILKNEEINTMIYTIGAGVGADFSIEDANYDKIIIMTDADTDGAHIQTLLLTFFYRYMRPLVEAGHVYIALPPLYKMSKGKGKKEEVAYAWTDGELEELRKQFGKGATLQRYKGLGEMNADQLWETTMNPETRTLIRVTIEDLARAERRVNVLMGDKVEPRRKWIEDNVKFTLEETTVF

Compound | inhibition at 13 µM [%]
CCn1cc(-c2cnc(Nc3cc(C)cc(OC)c3)nc2-n2nc(C(F)(F)F)cc2C)cc(C(=O)NS(C)(=O)=O)c1=O [Example 1176, 1-ethyl-5-{2-[(3-methoxy-5-methylphenyl)amino]-4-[5-methyl-3-(trifluoromethyl)-1H-pyrazol-1-yl]pyrimidin-5-yl}-N-(methylsulfonyl)-2-oxo-1,2-dihydropyridine-3-carboxamide] | 100
CC(C)Oc1ncc(-c2cnc(Nc3ccc(F)c(Cl)c3)nc2-n2ccc(C(F)(F)F)n2)cc1C(=O)O [Example 959, 5-(2-(3-chloro-4-fluorophenylamino)-4-(3-(trifluoromethyl)-1H-pyrazol-1-yl)pyrimidin-5-yl)-2-isopropoxynicotinic acid] | 93
CCOC(=O)c1sc(-c2cnc(Nc3ccc(F)c(Cl)c3)nc2NCCCOC)nc1-c1ccccn1 [Example 507, ethyl 2-{2-[(3-chloro-4-fluorophenyl)amino]-4-[(3-methoxypropyl)amino]pyrimidin-5-yl}-4-(pyridin-2-yl)-1,3-thiazole-5-carboxylate] | 74
CONC(=O)c1cncc(-c2cnc(Nc3ccc(F)c(Cl)c3)nc2NCCc2c[nH]cn2)c1 [Example 475, 5-(2-[(3-chloro-4-fluorophenyl)amino]-4-{[2-(1H-imidazol-4-yl)ethyl]amino}pyrimidin-5-yl)-N-methoxypyridine-3-carboxamide] | 93
COc1cc(Nc2ncc(-c3cnc(OC)nc3)c(NCCc3ccncc3)n2)cc(C(F)(F)F)c1 [Example 356, 2′-methoxy-N^2-(3-methoxy-5-(trifluoromethyl)phenyl)-N^4-(2-(pyridin-4-yl)ethyl)-5,5′-bipyrimidine-2,4-diamine] | 86.5
CCOC(=O)/C=C/c1cccc(-c2cnc(Nc3ccc(F)c(Cl)c3)nc2N2CCOCC2)c1 [Example 166, (E)-ethyl 3-(3-(2-(3-chloro-4-fluorophenylamino)-4-morpholinopyrimidin-5-yl)phenyl)acrylate] | 37.4
COc1cc(Nc2ncc(-c3cnc(OC)c(C(=O)NS(C)(=O)=O)c3)c(-n3nc(C(F)(F)F)nc3C)n2)cc(OC)c1 [Example 1153, 5-(2-(3,5-dimethoxyphenylamino)-4-(5-methyl-3-(trifluoromethyl)-1H-1,2,4-triazol-1-yl)pyrimidin-5-yl)-2-methoxy-N-(methylsulfonyl)nicotinamide] | 100
O=C(O)c1cncc(-c2cnc(Nc3cccc(Cl)c3)nc2-n2ccc(C(F)(F)F)n2)c1 [Ex 745, 5-{2-[(3-chlorophenyl)amino]-4-[3-(trifluoromethyl)-1H-pyrazol-1-yl]pyrimidin-5-yl}pyridine-3-carboxylic acid] | 100
COc1ncc(-c2cnc(Nc3cccc(C)c3)nc2-n2ccc(C(F)(F)F)n2)cc1C(=O)O [Example 726, 2-methoxy-5-{2-[(3-methylphenyl)amino]-4-[3-(trifluoromethyl)-1H-pyrazol-1-yl]pyrimidin-5-yl}pyridine-3-carboxylic acid] | 100
COCCCNc1nc(Nc2ccc(F)c(Cl)c2)ncc1-c1nc(-c2ccn(C)n2)c(C(=O)O)s1 [Example 512, 2-{2-[(3-chloro-4-fluorophenyl)amino]-4-[(3-methoxypropyl)amino]pyrimidin-5-yl}-4-(1-methyl-1H-pyrazol-3-yl)-1,3-thiazole-5-carboxylic acid] | 100
Fc1ccc(Nc2ncc(-c3cncnc3)c(NCCOc3ccccc3)n2)cc1Cl [Example 55, N^2-(3-chloro-4-fluorophenyl)-N^4-(2-phenoxyethyl)-5-pyrimidin-5-ylpyrimidine-2,4-diamine] | 44.4
O=C(O)/C=C/c1cccc(-c2cnc(Nc3ccc(F)c(Cl)c3)nc2-n2cc(Cl)cn2)c1 [Example 313, (2E)-3-(3-{2-[(3-chloro-4-fluorophenyl)amino]-4-(4-chloro-1H-pyrazol-1-yl)pyrimidin-5-yl}phenyl)prop-2-enoic acid] | 80.3
COc1cc(Nc2ncc(-c3cnc(OC)c(C(=O)NS(=O)(=O)c4cn(C)cn4)c3)c(-n3nc(C(F)(F)F)cc3C)n2)cc(OC)c1 [Example 839, 5-{2-[(3,5-dimethoxyphenyl)amino]-4-[5-methyl-3-(trifluoromethyl)-1H-pyrazol-1-yl]pyrimidin-5-yl}-2-methoxy-N-[(1-methyl-1H-imidazol-4-yl)sulfonyl]pyridine-3-carboxamide] | 100
Cc1cc(C(F)F)nn1-c1nc(Nc2ccc(F)c(Cl)c2)ncc1-c1cncc(C(=O)O)c1 [Example 530, 5-{2-[(3-chloro-4-fluorophenyl)amino]-4-[3-(difluoromethyl)-5-methyl-1H-pyrazol-1-yl]pyrimidin-5-yl}pyridine-3-carboxylic acid] | 100
COc1cc(F)cc(Nc2ncc(-c3cccc(/C=C/C(=O)O)c3)c(N3CCOCC3)n2)c1 [Example 410, (E)-3-{3-[2-(3-Fluoro-5-methoxy-phenylamino)-4-morpholin-4-yl-pyrimidin-5-yl]-phenyl}-acrylic acid] | 100
O=C(O)c1cncc(-c2cnc(Nc3ccc(F)c(Cl)c3)nc2N2CCCCC2)c1 [Example 275, 5-(2-(3-chloro-4-fluorophenylamino)-4-(piperidin-1-yl)pyrimidin-5-yl)nicotinic acid] | 134
CONC(=O)c1cncc(-c2cnc(Nc3ccc(F)c(Cl)c3)nc2-n2cc(-c3ccccn3)cn2)c1 [Example 550, 5-{2-[(3-chloro-4-fluorophenyl)amino]-4-[4-(pyridin-2-yl)-1H-pyrazol-1-yl]pyrimidin-5-yl}-N-methoxypyridine-3-carboxamide] | 100
COc1cc(Nc2ncc(-c3cnc(OC)c(C(=O)NS(=O)(=O)c4cn(C)c(=O)n(C)c4=O)c3)c(-n3nc(C(F)(F)F)cc3C)n2)cc(OC)c1 [Example 847, 5-{2-[(3,5-dimethoxyphenyl)amino]-4-[5-methyl-3-(trifluoromethyl)-1H-pyrazol-1-yl]pyrimidin-5-yl}-N-[(1,3-dimethyl-2,4-dioxo-1,2,3,4-tetrahydropyrimidin-5-yl)sulfonyl]-2-methoxypyridine-3-carboxamide] | 97
CN(C)CCCNc1nc(Nc2ccc(F)c(Cl)c2)ncc1-c1cncnc1 [Example 32, N^2-(3-chloro-4-fluorophenyl)-N^4-[3-(dimethylamino)propyl]-5,5′-bipyrimidine-2,4-diamine] | 91.1
COc1cc(Nc2ncc(-c3cnc(OCCCS(C)(=O)=O)c(C(=O)O)c3)c(-n3nc(C(F)(F)F)cc3C)n2)cc(OC)c1 [Example 967, 5-(2-(3,5-dimethoxyphenylamino)-4-(5-methyl-3-(trifluoromethyl)-1H-pyrazol-1-yl)pyrimidin-5-yl)-2-(3-(methylsulfonyl)propoxy)nicotinic acid] | 100
O=C(O)c1cncc(-c2cnc(Nc3ccc(F)c(C(F)(F)F)c3)nc2N2CCOCC2)c1 [Example 437] | 75
COCCCNc1nc(Nc2ccc(F)c(Cl)c2)ncc1-c1ccc2sc(C(=O)OC)cc2c1 [Example 180, methyl 5-(2-(3-chloro-4-fluorophenylamino)-4-(3-methoxypropylamino)-pyrimidin-5-yl)benzo[b]thiopene-2-carboxylate] | -56.9
COC(=O)c1cc2cc(-c3cnc(Nc4ccc(F)c(Cl)c4)nc3NCCCN(C)C)ccc2s1 [Example 22, Methyl 5-{2-(3-chloro-4-fluorophenylamino)-4-[3-(dimethylamino)propylamino]pyrimidin-5-yl}benzo[b]thiophene-2-carboxylate] | 85.3
CS(=O)(=O)c1cncc(-c2cnc(Nc3ccc(F)c(Cl)c3)nc2N2CCOCC2)c1 [Example 988, N-(3-chloro-4-fluorophenyl)-5-(5-(methylsulfonyl)pyridin-3-yl)-4-morpholinopyrimidin-22-amine] | 69
CCNC(=O)NS(=O)(=O)c1cccc(-c2cnc(Nc3ccc(F)c(Cl)c3)nc2-n2ccc(C(F)(F)F)n2)c1 [Example 998, 3-(2-(3-Chloro-4-fluorophenylamino)-4-(3-(trifluoromethyl)-1H-pyrazol-1-yl)pyrimidin-5-yl)-N-(ethylcarbamoyl)benzenesulfonamide] | 100
O=C(O)C(=O)Nc1cccc(-c2cnc(Nc3ccc(F)c(Cl)c3)nc2-n2ccc(C(F)(F)F)n2)c1 [Example 1072, 2-(3-(2-(3-Chloro-4-fluorophenylamino)-4-(3-(trifluoromethyl)-1H-pyrazol-1-yl)pyrimidin-5-yl)phenylamino)-2-oxoacetic acid] | 95
COc1ncc(-c2cnc(Nc3ccc(F)c(Cl)c3)nc2N2CCOCC2)cn1 [Example 77, N-(3-chloro-4-fluorophenyl)-2′-methoxy-4-morpholin-5,5′-bipyrimidin-2-amine] | 83
COCCCNc1nc(Nc2ccc(F)c(Cl)c2)ncc1-c1nc(-c2ccncc2)cs1 [Example 500, N^2-(3-chloro-4-fluorophenyl)-N^4-(3-methoxypropyl)-5-[4-(pyridin-4-yl)-1,3-thiazol-2-yl]pyrimidine-2,4-diamine] | 83
CN1CCN(c2nc(Nc3ccc(F)c(Cl)c3)ncc2-c2cncc(C(=O)O)c2)CC1 [Example 285, 5-(2-(3-chloro-4-fluorophenylamino)-4-(4-methylpiperazin-1-yl)pyrimidin-5-yl)nicotinic acid] | 61.9
Cc1cc(C(F)(F)F)nn1-c1nc(Nc2cc(F)cc(C#N)c2)ncc1-c1cncc(C(=O)O)c1 [Example 1121, 5-(2-(3-cyano-5-fluorophenylamino)-4-(5-methyl-3-(trifluoromethyl)-1H-pyrazol-1-yl)pyrimidin-5-yl)nicotinic acid] | 99
